Experimental data published in patent US20130109734A1 (Metabolex, Inc., priority 2010, published 2013).

What follows are compounds tested against T1, human GPR120 (Homo sapiens, UniProt Q5NUL3) (assay: Intracellular Ca2+ assay in human GPR120 stable cell line (HEK293 co-expressing Gqi5), Flexstation). Settings: % activity at 5 μM compared to the maximal activity of GW9508 at 6.7 μM (=100%); human GPR120 cells, Ca2+ fluorescence.
T1 construct: host or cells: HEK293 cells co-expressing Gqi5
T1 sequence (Q5NUL3 1-361): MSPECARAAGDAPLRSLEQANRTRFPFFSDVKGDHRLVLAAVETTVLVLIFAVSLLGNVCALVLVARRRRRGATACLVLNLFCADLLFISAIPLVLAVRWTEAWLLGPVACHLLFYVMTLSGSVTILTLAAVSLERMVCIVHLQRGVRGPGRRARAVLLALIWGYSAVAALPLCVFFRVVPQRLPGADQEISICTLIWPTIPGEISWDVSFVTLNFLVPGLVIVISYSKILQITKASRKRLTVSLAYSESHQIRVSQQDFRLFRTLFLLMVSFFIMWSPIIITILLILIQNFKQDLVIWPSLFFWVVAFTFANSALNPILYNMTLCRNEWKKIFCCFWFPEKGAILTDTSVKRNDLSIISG
Assay type: cell-based
In short: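 HEK293 cells stably co-expressing Gqi5 and Flag-tagged human GPR120, loaded with Calcium 4 dye in HBSS/HEPES pH 7.4 at 37 °C; compounds at eight concentrations, 0.00001–20 μM, fluorescence (485/525 nm) read 90 s. EC50 from Max−Min change; percent activity relative to GW9508 maximum at 6.7 μM.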

| % Activity (GW9508 Reference Compound) [%] | SMILES |
| --- | --- |
| 118.92 | CC(Cc1ccc(OCc2cc(Cl)cc3c2OC(C)(C)C3)c(CN(C)C)c1)C(=O)O (stereo not shown) [Example 88, 3-(4-((5-chloro-2,2-dimethyl-2,3-dihydrobenzofuran-7-yl)methoxy)-3-((dimethylamino)methyl)phenyl)-2-methylpropanoic acid] |
| 98.96 | Cc1cc(OCC(=O)O)ccc1OCc1cc(Cl)cc2c1OC(C)(C)C2 [Example 103, 2-(4-((5-chloro-2,2-dimethyl-2,3-dihydrobenzofuran-7-yl)methoxy)-3-methylphenoxy)acetic acid] |
| 154.51 | CC(CC(=O)O)c1cc(F)c(OCc2cc(Cl)cc3c2OC(C)(C)C3)c(F)c1 (stereo not shown) [Example 106, 3-(4-((5-chloro-2,2-dimethyl-2,3-dihydrobenzofuran-7-yl)methoxy)-3,5-difluorophenyl)butanoic acid] |
| 115.42 | CC1(C)Cc2cc(Cl)cc(COc3ccc4c(c3)CC(C(=O)O)C4)c2O1 (stereo not shown) [Example 112, 5-((5-chloro-2,2-dimethyl-2,3-dihydrobenzofuran-7-yl)methoxy)-2,3-dihydro-1H-indene-2-carboxylic acid] |
| 123.58 | CC1(C)Cc2cc(F)cc(COc3ccc4cc(C(=O)O)ccc4c3)c2O1 [Example 114, 6-((5-fluoro-2,2-dimethyl-2,3-dihydrobenzofuran-7-yl)methoxy)-2-naphthoic acid] |
| 145.6 | CC(C)Oc1cc(OCc2cc(Cl)cc3c2OC(C)(C)C3)ccc1CCC(=O)O [Example 116, 3-(4-((5-chloro-2,2-dimethyl-2,3-dihydrobenzofuran-7-yl)methoxy)-2-isopropoxyphenyl)propanoic acid] |
| 3.58 | CN(C)Cc1cc(OCc2cc(F)cc3c2OC(C)(C)C3)ccc1CCC(=O)O [Example 122, 3-(2-((dimethylamino)methyl)-4-((5-fluoro-2,2-dimethyl-2,3-dihydrobenzofuran-7-yl)methoxy)phenyl)propanoic acid] |
| 103.4 | CC1(C)Cc2cc(F)cc(COc3ccc(CC(=O)O)cc3)c2O1 [Example 133, 2-(4-((5-fluoro-2,2-dimethyl-2,3-dihydrobenzofuran-7-yl)methoxy)phenyl)acetic acid] |
| 151.44 | CCc1cc(OCc2cc(F)cc3c2OC(C)(C)C3)ccc1CCC(=O)O [Example 134, 3-(2-ethyl-4-((5-fluoro-2,2-dimethyl-2,3-dihydrobenzofuran-7-yl)methoxy)phenyl)propanoic acid] |
| 143.3 | C[C@H](Cc1ccc(OCc2cc(Cl)cc3c2OC(C)(C)C3)c(F)c1)C(=O)O [Example 141, (R)-3-(4-((5-chloro-2,2-dimethyl-2,3-dihydrobenzofuran-7-yl)methoxy)-3-fluorophenyl)-2-methylpropanoic acid] |
| 90.56 | C[C@H](Cc1ccc(OCc2cc(Cl)cc3c2OC(C)(C)C3)c(C(F)(F)F)c1)C(=O)O [Example 143, (R)-3-(4-((5-chloro-2,2-dimethyl-2,3-dihydrobenzofuran-7-yl)methoxy)-3-(trifluoromethyl)phenyl)-2-methylpropanoic acid] |

More lines, now with the values behind:

| SMILES | % Activity (GW9508 Reference Compound) [%] |
| --- | --- |
| COc1cccc(-c2cc(COc3ccc(CC(C)C(=O)O)cc3)c3c(c2)CC(C)(C)O3)c1 (stereo not shown) [Example 86, 3-(4-((5-(3-methoxyphenyl)-2,2-dimethyl-2,3-dihydrobenzofuran-7-yl)methoxy)phenyl)-2-methylpropanoic acid] | 5.23 |
| CCN(CC)c1cc(COc2ccc(CC(C)C(=O)O)cc2)c2c(c1)CC(C)(C)O2 (stereo not shown) [Example 89, 3-(4-((5-(diethylamino)-2,2-dimethyl-2,3-dihydrobenzofuran-7-yl)methoxy)phenyl)-2-methylpropanoic acid] | 82.28 |
| CC(Cc1ccc(OCc2cc(-n3cnnn3)cc3c2OC(C)(C)C3)cc1)C(=O)O (stereo not shown) [Example 90, 3-(4-((2,2-dimethyl-5-(1H-tetrazol-1-yl)-2,3-dihydrobenzofuran-7-yl)methoxy)phenyl)-2-methylpropanoic acid] | 75.86 |
| CC(Cc1ccc(OCc2ccc(F)c3c2CC(C)(C)O3)cc1)C(=O)O (stereo not shown) [Example 91, 3-(4-((7-fluoro-2,2-dimethyl-2,3-dihydrobenzofuran-4-yl)methoxy)phenyl)-2-methylpropanoic acid] | 121.29 |
| CC1(C)Cc2c(COc3ccc4c(c3)CCC4CC(=O)O)ccc(F)c2O1 (stereo not shown) [Example 94, 2-(5-((7-fluoro-2,2-dimethyl-2,3-dihydrobenzofuran-4-yl)methoxy)-2,3-dihydro-1H-inden-1-yl)acetic acid] | 98.45 |
| CC(Cc1ccc(OCc2c(F)ccc3c2CC(C)(C)O3)cc1)C(=O)O (stereo not shown) [Example 96, 3-(4-((5-fluoro-2,2-dimethyl-2,3-dihydrobenzofuran-4-yl)methoxy)phenyl)-2-methylpropanoic acid] | 124.82 |
| CC1(C)Cc2c(ccc(F)c2COc2c(F)cc(C3CC3C(=O)O)cc2F)O1 (stereo not shown) [Example 99, 2-(3,5-difluoro-4-((5-fluoro-2,2-dimethyl-2,3-dihydrobenzofuran-4-yl)methoxy)phenyl)cyclopropanecarboxylic acid] | 101.53 |
| COc1cc(COc2ccc(CC(C)C(=O)O)cc2)c2c(c1)CC(C)(C)O2 (stereo not shown) [Example 108, 3-(4-((5-methoxy-2,2-dimethyl-2,3-dihydrobenzofuran-7-yl)methoxy)phenyl)-2-methylpropanoic acid] | 143.85 |
| CC(Cc1cc(F)c(OCc2cc(Cl)cc3c2OC(C)C3(C)C)c(F)c1)C(=O)O (stereo not shown) [Example 109, 3-(4-((5-chloro-2,3,3-trimethyl-2,3-dihydrobenzofuran-7-yl)methoxy)-3,5-difluorophenyl)-2-methylpropanoic acid] | 72.36 |
| CC(Cc1cc(F)c(OCc2cc(OCc3ccccc3)cc3c2OC(C)(C)C3)c(F)c1)C(=O)O (stereo not shown) [Example 111, 3-(4-((5-(benzyloxy)-2,2-dimethyl-2,3-dihydrobenzofuran-7-yl)methoxy)-3,5-difluorophenyl)-2-methylpropanoic acid] | 51.55 |
| CC(C)Oc1cc(OCc2cc(F)cc3c2OC(C)(C)C3)ccc1CCC(=O)O [Example 115, 3-(4-((5-fluoro-2,2-dimethyl-2,3-dihydrobenzofuran-7-yl)methoxy)-2-isopropoxyphenyl)propanoic acid] | 151.78 |
| Cc1cc2cc(Cl)cc(COc3ccc(CC(C)C(=O)O)cc3F)c2o1 (stereo not shown) [Example 120, 3-(4-((5-chloro-2-methylbenzofuran-7-yl)methoxy)-3-fluorophenyl)-2-methylpropanoic acid] | 104.49 |
| CC(=O)Nc1cc(COc2ccc(CC(C)C(=O)O)cc2)c2c(c1)CC(C)(C)O2 (stereo not shown) [Example 123, 3-(4-((5-acetamido-2,2-dimethyl-2,3-dihydrobenzofuran-7-yl)methoxy)phenyl)-2-methylpropanoic acid] | 47.01 |
| CC(Cc1ccc(OCc2cc(OC(F)(F)F)cc3c2OC(C)(C)C3)cc1)C(=O)O (stereo not shown) [Example 124, 3-(4-((2,2-dimethyl-5-(trifluoromethoxy)-2,3-dihydrobenzofuran-7-yl)methoxy)phenyl)-2-methylpropanoic acid] | 131.64 |
| Cc1cc2c(OCc3cc(F)cc4c3OC(C)(C)C4)ccc(CCC(=O)O)c2o1 [Example 125, 3-(4-((5-fluoro-2,2-dimethyl-2,3-dihydrobenzofuran-7-yl)methoxy)-2-methylbenzofuran-7-yl)propanoic acid] | 32.57 |
| CC(=O)NCCOC(=O)C(C)Cc1ccc(OCc2cc(Cl)cc3c2OC(C)(C)C3)c(C(F)(F)F)c1 (stereo not shown) [Example 126, 2-acetamidoethyl 3-(4-((5-chloro-2,2-dimethyl-2,3-dihydrobenzofuran-7-yl)methoxy)-3-(trifluoromethyl)phenyl)-2-methylpropanoate] | 47.02 |
| CC1(C)Cc2cc(Cl)cc(CNc3ccc(CCC(=O)O)cc3)c2O1 [Example 127, 3-(4-(((5-chloro-2,2-dimethyl-2,3-dihydrobenzofuran-7-yl)methyl)amino)phenyl)propanoic acid] | 152.93 |
| CC(Cc1ccc(OCc2cc(Cl)cc3c2OC(C)(C)C3O)cc1)C(=O)O (stereo not shown) [Example 130, 3-(4-((5-chloro-3-hydroxy-2,2-dimethyl-2,3-dihydrobenzofuran-7-yl)methoxy)phenyl)-2-methylpropanoic acid] | 103.85 |
| CC1(C)Cc2cc(F)cc(COc3ccc(CCC(=O)O)c(OC(F)(F)F)c3)c2O1 [Example 136, 3-(4-((5-fluoro-2,2-dimethyl-2,3-dihydrobenzofuran-7-yl)methoxy)-2-(trifluoromethoxy)phenyl)propanoic acid] | 140.51 |
| CCc1cc(OCc2cccc3c2CC(C)(C)O3)ccc1CCC(=O)O [Example 140, 3-(4-((2,2-dimethyl-2,3-dihydrobenzofuran-4-yl)methoxy)-2-ethylphenyl)propanoic acid] | 146.18 |
